The text below walks through data of patent US11566030B2, “Substituted 2,6-dihydropyrrolo[3,4-c]pyrazoles as pyruvate kinase activators” (priority 2021, dated 2023).

The structures appear in SMILES notation. Like-named read-outs stand apart in the source and are kept apart here.

For the assay, the target named is T1, Human pyruvate kinase R (PKR) (Homo sapiens, UniProt P30613).
T1 construct: Human pyruvate kinase R (PKR), residues 14-574; 6xHis-8xArg-SUMO (N, cleaved yes); host or cells: E. coli
Briefly: Biochemical assay for activation of pyruvate kinase R (Kinase-Glo luminescence, ATP generation). The note with it: for Emax: read-out: PKR % activation, maximal activation level achieved with each compound relative to the activation level achieved by AG-348 @ 10 μM. The essentials: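 Recombinant human PKR (residues 14-574) expressed in E. coli with His-Arg-SUMO tag, tag cleaved, purified by Ni-NTA, anion exchange and size exclusion. Activation read as ATP generation by Kinase-Glo luminescence.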
In general terms: Kinase-Glo measures the ATP left after a reaction by luminescence.

Setting [1] is: PKR AC50 (nM), 0.1 nM PKR, 0.3 mM ADP, 0.1 mM PEP, 1% DMSO.

T1 sequence (P30613 14-574): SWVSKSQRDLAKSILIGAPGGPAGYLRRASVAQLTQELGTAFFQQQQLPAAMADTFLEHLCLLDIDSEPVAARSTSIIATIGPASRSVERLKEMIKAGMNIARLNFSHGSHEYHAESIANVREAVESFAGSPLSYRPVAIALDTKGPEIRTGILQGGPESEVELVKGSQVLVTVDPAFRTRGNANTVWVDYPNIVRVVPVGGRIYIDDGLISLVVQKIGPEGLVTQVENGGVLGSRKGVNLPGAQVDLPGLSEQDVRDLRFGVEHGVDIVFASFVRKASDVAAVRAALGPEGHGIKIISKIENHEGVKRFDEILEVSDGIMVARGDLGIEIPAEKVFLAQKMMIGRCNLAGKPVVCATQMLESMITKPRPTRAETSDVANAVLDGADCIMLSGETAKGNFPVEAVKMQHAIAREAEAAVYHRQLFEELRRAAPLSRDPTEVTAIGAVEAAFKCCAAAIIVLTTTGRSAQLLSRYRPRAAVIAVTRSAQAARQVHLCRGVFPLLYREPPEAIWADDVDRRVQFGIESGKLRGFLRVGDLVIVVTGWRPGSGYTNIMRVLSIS

On to `Cc1cn(CC(F)(F)F)nc1S(=O)(=O)n1cc2c(n1)CN(C(=O)[C@H](CO)c1ccccc1)C2` [Compound 66, (2S)-3-hydroxy-1-{2-[4-methyl-1-(2,2,2-trifluoroethyl)pyrazol-3-ylsulfonyl]-4H,6H-pyrrolo[3,4-c]pyrazol-5-yl}-2-phenylpropan-1-one], for which the Emax is 0%. Moreover, under setting [1], the AC50 was 120 nM.

Regarding `Cc1cn(CC(F)(F)F)nc1S(=O)(=O)n1cc2c(n1)CN(C(=O)[C@@H](CO)c1ccccc1)C2` [Compound 67, (2R)-3-hydroxy-1-{2-[4-methyl-1-(2,2,2-trifluoroethyl)pyrazol-3-ylsulfonyl]-4H,6H-pyrrolo[3,4-c]pyrazol-5-yl}-2-phenylpropan-1-one], the Emax came out at 0%. For the molecule `Cc1cn(CC(F)(F)F)nc1S(=O)(=O)n1cc2c(n1)CN(C(=O)[C@H](CO)c1ccccc1F)C2` [Compound 68, (2S)-2-(2-fluorophenyl)-3-hydroxy-1-{2-[4-methyl-1-(2,2,2-trifluoroethyl)pyrazol-3-ylsulfonyl]-4H,6H-pyrrolo[3,4-c]pyrazol-5-yl}propan-1-one], the Emax is 9%. This molecule came in with an AC50 under setting [1] of 2100 nM. In the same order, the values of `Cc1cn(CC(F)(F)F)nc1S(=O)(=O)n1cc2c(n1)CN(C(=O)[C@@H](CO)c1ccccc1F)C2` [Compound 69, (2R)-2-(2-fluorophenyl)-3-hydroxy-1-{2-[4-methyl-1-(2,2,2-trifluoroethyl)pyrazol-3-ylsulfonyl]-4H,6H-pyrrolo[3,4-c]pyrazol-5-yl}propan-1-one] are 4% and 15 nM. As for `Cc1cn(CC(F)(F)F)nc1S(=O)(=O)n1cc2c(n1)CN(C(=O)[C@H](CO)c1ccccc1Cl)C2` [Compound 70, (2S)-2-(2-chlorophenyl)-3-hydroxy-1-{2-[4-methyl-1-(2,2,2-trifluoroethyl)pyrazol-3-ylsulfonyl]-4H,6H-pyrrolo[3,4-c]pyrazol-5-yl}propan-1-one], the Emax turned out to be 36%. Also, under setting [1], the activity was half-maximal at 82 nM (AC50).

Take `Cc1cn(CC(F)(F)F)nc1S(=O)(=O)n1cc2c(n1)CN(C(=O)[C@@H](CO)c1ccccc1Cl)C2` [Compound 71, (2R)-2-(2-chlorophenyl)-3-hydroxy-1-{2-[4-methyl-1-(2,2,2-trifluoroethyl)pyrazol-3-ylsulfonyl]-4H,6H-pyrrolo[3,4-c]pyrazol-5-yl}propan-1-one]: the Emax came out at 30%. Under setting [1], this molecule had an AC50 of 3900 nM. For `O=C([C@H](CO)c1ccccc1)N1Cc2cn(S(=O)(=O)c3ccn(CC(F)F)n3)nc2C1` [Compound 72, (2S)-1-{2-[1-(2,2-difluoroethyl)pyrazol-3-ylsulfonyl]-4H,6H-pyrrolo[3,4-c]pyrazol-5-yl}-3-hydroxy-2-phenylpropan-1-one], half-maximal activity (AC50) was put at 9.6 nM and the Emax stood at 98%. For the molecule `O=C([C@H](CO)c1cccc(F)c1F)N1Cc2cn(S(=O)(=O)c3cnn(CC(F)(F)F)c3)nc2C1` [Compound 73, (2S)-2-(2,3-difluorophenyl)-3-hydroxy-1-{2-[1-(2,2,2-trifluoroethyl)pyrazol-4-ylsulfonyl]-4H,6H-pyrrolo[3,4-c]pyrazol-5-yl}propan-1-one], the Emax was found to be 66%. This molecule also showed an AC50 under setting [1] of 17 nM. In the case of `O=C([C@@H](CO)c1cccc(F)c1F)N1Cc2cn(S(=O)(=O)c3cnn(CC(F)(F)F)c3)nc2C1` [Compound 74, (2R)-2-(2,3-difluorophenyl)-3-hydroxy-1-{2-[1-(2,2,2-trifluoroethyl)pyrazol-4-ylsulfonyl]-4H,6H-pyrrolo[3,4-c]pyrazol-5-yl}propan-1-one], the Emax came to 72%. The activity under setting [1] was half-maximal at 440 nM (AC50). In the case of `Cc1cn(CC(F)(F)F)nc1S(=O)(=O)n1cc2c(n1)CN(C(=O)C1(c3ncccc3Cl)COC1)C2` [Compound 75, (3-(3-chloropyridin-2-yl)oxetan-3-yl)(2-((4-methyl-1-(2,2,2-trifluoroethyl)-1H-pyrazol-3-yl)sulfonyl)-2,6-dihydropyrrolo[3,4-c]pyrazol-5(4H)-yl)methanone], the Emax stood at 3%. Under setting [1], the AC50 came to 0.51 nM.

For `Cc1cn(CC(F)F)nc1S(=O)(=O)n1cc2c(n1)CN(C(=O)[C@H](CO)c1ccccc1)C2` [Compound 76, (2S)-1-{2-[1-(2,2-difluoroethyl)-4-methylpyrazol-3-ylsulfonyl]-4H,6H-pyrrolo[3,4-c]pyrazol-5-yl}-3-hydroxy-2-phenylpropan-1-one], the Emax was determined as 3%. Also, the AC50 under setting [1] was found to be 3800 nM. For the molecule `Cc1cn(CC(F)F)nc1S(=O)(=O)n1cc2c(n1)CN(C(=O)[C@@H](CO)c1ccccc1)C2` [Compound 77, (2R)-1-{2-[1-(2,2-difluoroethyl)-4-methylpyrazol-3-ylsulfonyl]-4H,6H-pyrrolo[3,4-c]pyrazol-5-yl}-3-hydroxy-2-phenylpropan-1-one], the Emax stood at 16%. This molecule had an AC50 under setting [1] of 0.51 nM. As for `Cc1cn(CC(F)F)nc1S(=O)(=O)n1cc2c(n1)CN(C(=O)[C@H](CO)c1ccccc1F)C2` [Compound 78, (2S)-1-{2-[1-(2,2-difluoroethyl)-4-methylpyrazol-3-ylsulfonyl]-4H,6H-pyrrolo[3,4-c]pyrazol-5-yl}-2-(2-fluorophenyl)-3-hydroxypropan-1-one], the AC50 amounted to 7.1 nM and the Emax came to 32%. In the same order, the values of `Cc1cn(CC(F)F)nc1S(=O)(=O)n1cc2c(n1)CN(C(=O)[C@@H](CO)c1ccccc1F)C2` [Compound 79, (2R)-1-{2-[1-(2,2-difluoroethyl)-4-methylpyrazol-3-ylsulfonyl]-4H,6H-pyrrolo[3,4-c]pyrazol-5-yl}-2-(2-fluorophenyl)-3-hydroxypropan-1-one] are 550 nM and 33%. In the same order, the values of `Cc1cn(CC(F)F)nc1S(=O)(=O)n1cc2c(n1)CN(C(=O)[C@H](CO)c1ccccc1Cl)C2` [Compound 80, (2S)-2-(2-chlorophenyl)-1-(2-{[1-(2,2-difluoroethyl)-4-methyl-1H-pyrazol-3-yl]sulfonyl}-2H,4H,5H,6H-pyrrolo[3,4-c]pyrazol-5-yl)-3-hydroxypropan-1-one] are 8.9 nM and 73%.

Regarding `Cc1cn(CC(F)F)nc1S(=O)(=O)n1cc2c(n1)CN(C(=O)[C@@H](CO)c1ccccc1Cl)C2` [Compound 81, (2R)-2-(2-chlorophenyl)-1-{2-[1-(2,2-difluoroethyl)-4-methylpyrazol-3-ylsulfonyl]-4H,6H-pyrrolo[3,4-c]pyrazol-5-yl}-3-hydroxypropan-1-one], the AC50 was determined as 500 nM and the Emax was found to be 62%. As to `Cc1cn(CC(F)F)nc1S(=O)(=O)n1cc2c(n1)CN(C(=O)C1(c3ncccc3Cl)COC1)C2` [Compound 82, 3-chloro-2-(3-{2-[1-(2,2-difluoroethyl)-4-methylpyrazol-3-ylsulfonyl]-4H,6H-pyrrolo[3,4-c]pyrazole-5-carbonyl}oxetan-3-yl)pyridine], the Emax came to 19%. The molecule further came in with an AC50 under setting [1] of 8.3 nM.

Take `O=C([C@H](CO)c1ccccc1)N1Cc2cn(S(=O)(=O)c3cnn(CC(F)(F)F)c3)nc2C1` [Compound 83, (2S)-3-hydroxy-2-phenyl-1-{2-[1-(2,2,2-trifluoroethyl)pyrazol-4-ylsulfonyl]-4H,6H-pyrrolo[3,4-c]pyrazol-5-yl}propan-1-one]: half-maximal activity (AC50) was put at 15 nM and the Emax was determined as 69%. For `O=C([C@@H](CO)c1ccccc1)N1Cc2cn(S(=O)(=O)c3cnn(CC(F)(F)F)c3)nc2C1` [Compound 84, (2R)-3-hydroxy-2-phenyl-1-{2-[1-(2,2,2-trifluoroethyl)pyrazol-4-ylsulfonyl]-4H,6H-pyrrolo[3,4-c]pyrazol-5-yl}propan-1-one], the AC50 was 2500 nM and the Emax is 73%. Consider `Cc1nn(CC(F)F)c(C)c1S(=O)(=O)n1cc2c(n1)CN(C(=O)[C@H](CO)c1ccccc1)C2` [Compound 87, (2S)-1-[2-[1-(2,2-difluoroethyl)-3,5-dimethylpyrazol-4-ylsulfonyl]-4H,6H-pyrrolo[3,4-c]pyrazol-5-yl]-3-hydroxy-2-phenylpropan-1-one], for which the Emax worked out at 59%. As to `Cc1nn(CC(F)F)c(C)c1S(=O)(=O)n1cc2c(n1)CN(C(=O)[C@@H](CO)c1ccccc1)C2` [Compound 88, (2R)-1-[2-[1-(2,2-difluoroethyl)-3,5-dimethylpyrazol-4-ylsulfonyl]-4H,6H-pyrrolo[3,4-c]pyrazol-5-yl]-3-hydroxy-2-phenylpropan-1-one], the Emax worked out at 0%. Moreover, half-maximal activity under setting [1] (AC50) was put at 680 nM. For the molecule `Cc1c(S(=O)(=O)n2cc3c(n2)CN(C(=O)[C@@H](CO)c2ccccc2)C3)cnn1CC(F)F` [Compound 89, (R)-1-(2-((1-(2,2-difluoroethyl)-5-methyl-1H-pyrazol-4-yl)sulfonyl)-2,6-dihydropyrrolo[3,4-c]pyrazol-5(4H)-yl)-3-hydroxy-2-phenylpropan-1-one], half-maximal activity (AC50) was put at 1200 nM and the Emax worked out at 105%. With `O=C([C@H](CO)c1ccccc1Cl)N1Cc2cn(S(=O)(=O)c3cnn(CCF)c3)nc2C1` [Compound 90, (2S)-2-(2-chlorophenyl)-1-{2-[1-(2-fluoroethyl)pyrazol-4-ylsulfonyl]-4H,6H-pyrrolo[3,4-c]pyrazol-5-yl}-3-hydroxypropan-1-one], the Emax came to 131%. For the same molecule, the AC50 under setting [1] is 5.7 nM. As for `O=C([C@@H](CO)c1ccccc1Cl)N1Cc2cn(S(=O)(=O)c3cnn(CCF)c3)nc2C1` [Compound 91, (2R)-2-(2-chlorophenyl)-1-{2-[1-(2-fluoroethyl)pyrazol-4-ylsulfonyl]-4H,6H-pyrrolo[3,4-c]pyrazol-5-yl}-3-hydroxypropan-1-one], the Emax was 164%. Under setting [1], this molecule showed an AC50 of 91 nM. For `CCn1cc(S(=O)(=O)n2cc3c(n2)CN(C(=O)[C@H](CO)c2ccccc2)C3)c(C(F)(F)F)n1` [Compound 94, (2S)-1-{2-[1-ethyl-3-(trifluoromethyl)pyrazol-4-ylsulfonyl]-4H,6H-pyrrolo[3,4-c]pyrazol-5-yl}-3-hydroxy-2-phenylpropan-1-one] the same measures were 18% and 34 nM.

The AC50 is the midpoint of the concentration-response curve, whichever way the signal moves. High values mean activity only at high concentration, low ones activity at low concentration.
